# Experimental data from the METLIN SMRT retention time set (Domingo-Almenara et al. 2019).
# Assay: gradient 5% acetonitrile 3 min, to 50% in 2 min, to 85% in 15 min, held 3 min, 100 µL/min
# Details: column: Zorbax Extend-C18 2.1 x 50 mm; eluents: water / acetonitrile, 0.1% formic acid
# In short: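 Each retention time is based on an adduct peak selected computationally and verified by manual inspection. Measurements used HPLC–quadrupole time-of-flight mass spectrometry in positive and negative ionization mode on mixtures of ~100 pure standards. Chromatography ran on a Zorbax Extend-C18 column (2.1 × 50 mm, 1.8 μm) at 100 μL/min with water and acetonitrile, each containing 0.1% formic acid, and dead and dwell volumes of 40 μL and 900 μL.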
row,RP-LC retention time [s],SMILES
1,593,CCCN1CCN(C(=O)C2CCN(S(=O)(=O)c3ccc4c(c3)NC(=O)C(C)S4)CC2)CC1 (centres undefined)
2,917,CC(C)OCCCNC(=O)c1nnc(-c2ccc(S(=O)(=O)N3CCCCC3)cc2)o1
3,614,Cc1nc2cc(N3CC(C(=O)Nc4ccc(C)c(C)c4)CC3=O)ccc2o1 (centres undefined)
4,691,CC(=O)N1CCc2cc(CNS(=O)(=O)c3ccccc3)ccc21
5,626,COc1ccc(CN2CCc3nc(N4CCN(c5ncccn5)CC4)ncc3C2)cc1OC
6,1010,CCOC(=O)c1noc2nc(C)nc(NCc3ccc(OC)cc3)c12
7,770,Cc1ccc(CNC(=O)N2CCCC(OCc3nc(C)no3)C2)cc1 (centres undefined)
8,746,CCn1ccc2c(cc(C(=O)Nc3cc(OC)ccc3OC)n2C)c1=O
9,645,Cc1nn(CCCC(=O)NCCCN2CCCCC2)c(=O)c2c1sc1ccccc12
10,710,COc1ccc(-c2nc3cnccn3c2Nc2ccc(C(=O)NCc3ccco3)cc2)cc1
11,723,CCOC(=O)CNC(=O)N1CCc2cc(-c3ccc(C(=O)N4CCOCC4)cc3)ccc21
12,1010,CCOc1ccc(CNC(=O)c2c(C)sc3ccn(CC(C)C)c(=O)c23)cc1
13,1200,Cc1cccc2c3c(ccc12)C1=C(C(=O)C3=O)[C@@H](C)CO1
14,1130,Cc1ccccc1OCc1nc(-c2cccc(-c3ccnn3C)c2)no1
15,656,CCCNC(=O)C1CCN(c2ccc(SCC(=O)Nc3cc(C)ccc3C)nn2)CC1
16,1320,CCCN1C(=O)COc2ccc(-c3noc(-c4cccc(C)c4)n3)cc21
17,699,CC1(C)CC(=O)c2cn(-c3ccccc3)c(=O)c(C(=O)N3CCCC3)c2C1
18,596,CCc1ccc(NC(=O)Cn2c(N)nc(C)c(C)c2=O)cc1
19,564,COc1cn(CC(=O)NCc2ccccc2Cl)c(CO)cc1=O
20,892,Cn1c(=O)c(N2CCC(C(=O)NCCc3c[nH]c4ccc(Cl)cc34)CC2)nc2ccccc21
21,742,CC(=O)N1CCc2cc(C)c(S(=O)(=O)NCc3ccco3)cc21
22,1080,Cc1cccc(N2CCN(C(=O)CCC3CCCN(C(=O)Nc4ccccc4)C3)CC2)c1C (centres undefined)
23,715,CN1CCN(C(=O)Cn2cccc2-c2nc(-c3ccc(Cl)cc3)cs2)CC1
24,692,Cn1cc(-c2cc3n(n2)CCC(=O)N3CCCC(=O)N2CCOCC2)c2ccccc21
25,970,CCOc1cc(=O)n2c(c1C(=O)OCc1ccc(Cl)cc1)CCCC2
26,991,COc1ccc(-c2c(C(=O)Nc3ccccc3OC)nc3ccccn23)cc1

row,RP-LC retention time [s],SMILES
1,787,CCN(CC)C(=O)c1ccc2c(c1)N(CC(=O)N(C)Cc1ccccc1)C(=O)CS2
2,1010,CC(C)c1noc(-c2ccc(-n3cnc(C(=O)N4CCc5ccccc5C4)c3)nc2)n1
3,926,COc1ccc(-c2noc(COC(=O)C3=CN(C)S(=O)(=O)N=C3C)n2)cc1
4,888,Cc1ccc2ncn(C3CCN(C(=O)Nc4ccc(C)c(Cl)c4)CC3)c(=O)c2c1
5,677,COc1cccc(NC(=O)Nc2c(-c3ccc(F)cc3)nc3ccccn23)c1
6,605,CCC(=O)NCc1nc2c(n1C)CN(C(=O)c1ccc(Br)cc1)CC2
7,904,COc1ccc(OCc2nc(C3CN(C(=O)C4(c5ccccc5)CC4)C3)no2)cc1
8,912,COCCN(CC(=O)N1CCc2sccc2C1COc1cccc(F)c1)C(=O)C(C)C (centres undefined)
9,974,CC(C)N1C(=O)C(C)(C(=O)NCc2ccccc2Cl)Oc2cccnc21 (centres undefined)
10,1070,COc1ccc(CNS(=O)(=O)c2c(C)nn(-c3ccc(-c4ccc(C)cc4)nn3)c2C)cc1
11,828,COc1ccc(NC(=O)C2CCCN(c3ncnc4c3nc3n4CCCCC3)C2)cc1Cl (centres undefined)
12,1020,COc1cc2ncc(-c3ccccc3)nc2cc1OC
13,1170,COc1ccc(N/C=C2\C(=O)CCc3c2oc2cc(Cl)c(O)c(Cl)c32)cc1
14,747,CCC(=O)N1CCc2cc(CNS(=O)(=O)c3ccc(OC)c(OC)c3)ccc21
15,704,CCN1C(=O)Cc2cc(C(=O)NCc3cccs3)ccc21
16,500,COc1cccc(OC)c1CN1C[C@@H](CO)[C@H](c2ccncc2)C1
17,707,Cc1noc(COC2CCN(C(=O)c3ccc4ccccc4n3)CC2)n1
18,669,CC(C)C(=O)Nc1ccc(CCc2nc3ccc(C(=O)NCc4ccc5c(c4)OCO5)cc3[nH]2)cc1
19,799,CCOC(=O)N1CCN(C(=O)CSc2nnc(COc3ccc(Cl)cc3)o2)CC1
20,1190,COc1ccc(Cl)cc1NC(=O)N1CCC2(CC1)NC(=O)c1ccccc1O2
21,867,COC(=O)c1cc(OCC(=O)Nc2ccc(OC)c(Cl)c2)c2cc(OC)ccc2n1
22,872,COc1cc(NC(=O)CN2C(=O)C(O)(c3ccccc3)c3ccccc32)cc(OC)c1 (centres undefined)
23,834,Cc1ccc(S(=O)(=O)N2C[C@H]3CN(C(=O)NCCc4ccccc4)C[C@@H](C2)O3)cc1
24,577,Cn1cc(CC(=O)N2CCN(S(=O)(=O)C3CC3)CC2)c2ccccc21
25,606,CNC(=O)CCNc1c(-c2cccc(F)c2)nc2cnccn12
26,615,COC(=O)c1ccc(Nc2nc(C)nc3c2CCC3)cc1

# Second part, the compound before the results:
row,SMILES,RP-LC retention time [s]
1,O=C(Nc1ccccc1F)C1CCCN(S(=O)(=O)c2c[nH]c(C(=O)N3CCCCCC3)c2)C1 (centres undefined),880
2,Clc1ccc(-c2csc(Cc3nc(-c4ccccc4)no3)n2)cc1,1310
3,O=C(c1ccsc1)N1CCC(Cc2nnc(-c3ccccc3)o2)CC1,774
4,Cc1cc(C)cc(-c2nnc(Cc3nc(-c4ccncc4)no3)o2)c1,886
5,CC1=C(c2ccccc2)S(=O)(=O)N=C1N1CCCN(C(=O)c2ccc(Cl)cc2)CC1,863
6,Cc1c(-c2noc(-c3ccccc3F)n2)nnn1Cc1ccccc1,1030
7,CCOc1ccc2nc(C(=O)NC3CCCCCC3)cn2n1,982
8,O=C(CSc1ccc(N2CCN(c3ccc(F)cc3)CC2)nn1)NCC1CCCO1 (centres undefined),689
9,Clc1ccc(Cl)c(-c2ccc(CNCc3ccncc3)o2)c1,664
10,CCn1cnc(S(=O)(=O)N2CCCC(C(=O)N3CCN(c4ccccc4)CC3)C2)c1 (centres undefined),747
11,O=C(Cn1cnc2nc(N3CCC(C(=O)NC4CC4)CC3)sc2c1=O)NCc1cccs1,618
12,Cc1ccccc1-c1cc(C(=O)N2CCC(NC(=O)C3CCCC3)CC2)[nH]n1,712
13,O=C(Nc1cccnc1N1CCOCC1)C1CC1,576
14,Cn1c(=O)cnc2ccc(N3CCCC3)nc21,884
15,Cc1nc2cc(-c3noc(-c4ccc(C#N)cc4)n3)ccc2n(C)c1=O,965
16,COCc1noc(C2CN(C(=O)c3ccc(Cl)s3)CC23CCCC3)n1 (centres undefined),962
17,O=[N+]([O-])c1ccc(CSc2nc3ccccc3o2)cc1,1020
18,O=C(c1n[nH]c2ccccc12)N1CCCn2nc(-c3cccs3)cc2C1,791
19,Cc1nc2cc(-c3noc(-c4ccc(F)c(Cl)c4)n3)ccc2o1,1270

row,SMILES,RP-LC retention time [s]
1,Cc1cccc(NC(=O)Cn2c(C)nc3c(sc4nc(-c5ccccc5)ccc43)c2=O)c1C,1170
2,O=C(CSc1ccc(N2CCCC(C(=O)NC3CC3)C2)nn1)Nc1ccccc1Cl (centres undefined),673
3,Cc1c(-c2ccnc(N3CCOCC3)n2)cnc2nc(-c3ccccc3)nn12,885
4,CCN1CCN(c2nc(-c3cccnc3)nc3ccccc23)CC1,524
5,N#Cc1ccc(NC(=O)Cn2cc(-c3ccccc3)c3ncn(C4CC4)c(=O)c32)cc1,885
6,O=C(Cc1csc2nc(-c3ccccc3)cn12)Nc1ccc(C(F)(F)F)cc1,922
7,c1coc(-c2nc(-c3ccc4c(c3)nnn4CCN3CCCCC3)no2)c1,652
8,Cn1nccc1C(=O)Nc1c(-c2cccc(F)c2)nc2sc(N3CCCCC3)nn12,882
9,Cc1ccc(C(=O)N2CCCCCCN(C)C(=O)[C@@H]3CCC[C@@H]32)s1,912
10,CCOC(=O)c1nc(N2CCOCC2)c2c(-c3ccccc3Cl)noc2n1,934
11,CCN1CCN(c2cc(-c3nc(-c4ccc(Cl)cc4)no3)c3ccccc3n2)CC1,911
12,Cc1ccc(Nc2c(-c3cc(Br)ccc3F)nc3ccccn23)cc1,801
13,CCCCOc1ccc(CNC(=O)CN2CC=C(c3cnn(-c4ccccc4)c3)CC2)cc1,826
14,COc1cccc(C2Cn3nnc(-c4nc(-c5ccc(C(F)(F)F)cc5)no4)c3CO2)c1 (centres undefined),1270
15,Cc1ccsc1C(=O)N1C[C@H]2C[C@H](C1)[C@H]1CCCC(=O)N1C2,754
16,Cn1nc(C(=O)N2CCCC2)c2c1CCN(C(=O)Nc1cccc(Br)c1)C2,804
17,COCC(=O)Nc1cnc(N2CCCCC2)nc1,683
18,CCC(CO)NC(=O)C(=O)NCCC1=CCCCC1 (centres undefined),724
